Laboratory results reported in PubChem BioAssay (NCI).
Where “and” joins values, the source holds several entries; their conditions need not be identical. Identical values can stand only once.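 In this assay, cells in 96-well plates receive the compound at five concentrations for 48 hours. Endpoints are linearly interpolated between the surrounding concentrations. At the GI50, growth is halved. TGI marks complete inhibition of growth.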

What was measured:
Experiment in all cases: inhibition of tumour cell growth, NCI panel, 48 h
TK-10 renal = test system: TK-10 renal
M14 melanoma = test system: M14 melanoma
SK-OV-3 ovarian = test system: SK-OV-3 ovarian
LOX IMVI melanoma = test system: LOX IMVI melanoma
BT-549 breast = test system: BT-549 breast
SNB-19 CNS = test system: SNB-19 CNS
DU-145 prostate = test system: DU-145 prostate
RPMI-8226 leukemia = test system: RPMI-8226 leukemia

Compound | GI50 (TK-10 renal) | TGI (TK-10 renal) | GI50 (M14 melanoma) [µM] | TGI (M14 melanoma) | GI50 (SK-OV-3 ovarian) | TGI (SK-OV-3 ovarian) [µM] | GI50 (LOX IMVI melanoma) [µM] | TGI (LOX IMVI melanoma) [µM] | GI50 (BT-549 breast) | TGI (BT-549 breast) | GI50 (SNB-19 CNS) | TGI (SNB-19 CNS) | GI50 (DU-145 prostate) [µM] | TGI (DU-145 prostate) | GI50 (RPMI-8226 leukemia) [µM] | TGI (RPMI-8226 leukemia) [µM]
CNNC(=N\S(=O)(=O)c1cc(C(=O)Nc2ccc(Cl)cc2)c(Cl)cc1SCc1ccccc1)/N=C/c1ccc([N+](=O)[O-])s1 | > 100 µM | > 100 µM | 10.1 | > 100 µM | > 100 µM | > 100 | > 100 | > 100 | > 100 µM | > 100 µM | > 100 µM | > 100 µM | > 20.3 | > 100 µM | – | –
COc1cccc(-n2ncc3c(N/N=C/c4ccc(S(C)(=O)=O)cc4)ncnc32)c1 | 8.4 µM | > 23.3 µM | 5.74 | > 25 µM | 4.24 µM | 10.7 | 2.34 | > 25 | 13.5 µM | > 25 µM | 11.5 µM | > 25 µM | 16.4 | > 25 µM | > 22.9 | > 25
N#CSCc1c(Cl)cccc1Cl | 4.51 µM | > 29.2 µM | 3.05 | > 100 µM | 34 µM | > 100 | 3.55 | > 100 | 2.31 µM | 7.48 µM | 32.3 µM | > 100 µM | 2.74 | 5.71 µM | < 0.0506 | 1.33
CO[C@H]1C[C@@H]2CC[C@@H](C)[C@@](O)(O2)C(=O)C(=O)N2CCCC[C@H]2C(=O)O[C@H]([C@H](C)C[C@@H]2CC[C@@H](OP(C)(C)=O)[C@H](OC)C2)CC(=O)[C@H](C)/C=C(\C)[C@@H](O)[C@@H](OC)C(=O)[C@H](C)C[C@H](C)/C=C/C=C/C=C/1C | – | 22.3 µM | 11.8 | 26 µM | 0.557 µM | 21.7 | < 0.01 | 21.7 | < 0.0131 µM | 18.6 µM | 7.03 µM | 23.5 µM | 10.4 | 22.4 µM | 8.49 | 40.6
COc1ccc(/C=C/C(=O)c2ccc3cc(OC)c(OC)cc3c2)cc1OC | 3.17 µM | 9.97 µM | 5.47 | 21 µM | 4.41 µM | 83.5 | 2.95 | 11.2 | 2.55 µM | 8.39 µM | 5.29 µM | 29.8 µM | 4.01 | 15.7 µM | 1.9 | 5.07
Nc1ccn(C2CC(O)C(CO)O2)c(=O)n1 (stereo unspecified) | > 5000 µM | > 5000 µM | > 5000 | > 5000 µM | > 5000 µM | > 5000 | > 5000 | > 5000 | > 5000 µM | > 5000 µM | > 5000 µM | > 5000 µM | > 5000 | > 5000 µM | > 5000 | > 5000
CCN(CC)CCCOc1cc(O)c2c(=O)cc(-c3ccccc3)oc2c1 | 10.3 µM | 25.3 µM | – | – | 14.3 µM | 28 | 3.75 | 14.1 | 13.3 µM | 26.6 µM | 12.1 µM | 24.5 µM | 10.2 | 21.8 µM | 9.71 | 28.4
CCN(C(=O)CCl)C(C)(C)C(SSSC(c1ccc(Cl)cc1)C(C)(C)N(CC)C(=O)CCl)c1ccc(Cl)cc1 (stereo unspecified) | 2.5 µM | 7.92 µM | 1.91 | 3.65 µM | 15.3 µM | 31.5 | 3.1 | 10.7 | 10.3 µM | 23 µM | 13.9 µM | 30.3 µM | 11.5 | 24.2 µM | 3.99 | 18.2
Nc1c(C(=O)c2cccc(CCC3(O)CCCC3)c2)cnn1-c1ccc(F)cc1 | 18.8 µM | > 25 µM | 14.9 | > 25 µM | > 25 µM | > 25 | > 25 | > 25 | 9.75 µM | > 25 µM | 15.3 µM | > 25 µM | > 21.1 | > 25 µM | 9.23 | > 25
CC(=O)OC1CCC2(C)C(CCC3C4CC=C(C(C)=O)C4(C)OC(=O)CC32)C1 (stereo unspecified) | 2.05 µM | 4.77 µM | 1.71 | 3.51 µM | 11.1 µM | 23.1 | 1.61 | 3.17 | 1.58 µM | 3.08 µM | 13.3 µM | 27.9 µM | 2.36 | 6.1 µM | 1.79 | 4.86
CC1=CC2=C(C(N)=O)C(=O)OC2(C)C(c2ccccc2)C1 (stereo unspecified) | – | > 100 µM | – | > 100 µM | – | > 100 | – | > 100 | – | > 100 µM | – | > 100 µM | – | > 100 µM | – | > 100
COC(=O)c1ccc2c(c1)C(=O)c1c-2n(CCCN)c(=O)c2cc([N+](=O)[O-])ccc12 | 1.05 µM | 2.92 µM | < 0.0222 | 0.46 µM | 0.0332 µM | 1.65 | < 0.0115 | 0.154 | 0.265 µM | 1.77 µM | < 0.0205 µM | 1.87 µM | < 0.0159 | 0.391 µM | < 0.01 | 0.117
C/C1=C\C/C=C(\C)[C@H]2CC(CC/C(C)=C/CC1)[C@@](C)(CO)O2 | – | – | 71.7 | > 100 µM | > 100 µM | > 100 | 23.3 | 54 | > 100 µM | > 100 µM | > 100 µM | > 100 µM | > 100 | > 100 µM | 40.6 | > 100
ICCC(c1ccccc1)(c1ccccc1)c1ccccc1 | 14 µM | 30.7 µM | 1.92 | 3.72 µM | 14.7 µM | 27.8 | 4.16 | 19.2 | – | – | 14.4 µM | 31.1 µM | 10.1 | 21.6 µM | 3.72 | 17.1
CC1(C)CC(=O)c2c(ccc(C(=O)C[C@H](N)CO)c2N)O1 | > 17.5 µM and 5.99 µM | > 17.5 µM and 28.8 µM | – | 17.5 µM and 11.3 µM | > 17.5 µM and 12.3 µM | > 33.3 | – | – | 6.44 µM and 2.87 µM | 17.5 µM and 25.4 µM | 5.07 µM and 1.41 µM | 17.5 µM and > 33.3 µM | – | 17.5 µM and > 33.3 µM | 4.62 | 17.5
O=Cc1ccc(Oc2c3ccccc3nc3occc23)cc1 | 3.83 µM | 21 µM | 15.9 | 30.3 µM | 21.6 µM | 57 | – | – | – | – | 28.8 µM | > 100 µM | 17.6 | 43.7 µM | 12.2 | 48.3
